Experiments:
[1] = biological target: T1, USP2 (ubiquitin-specific protease 2) (Homo sapiens, UniProt O75604); experiment: Ub-AFC deubiquitination kinetics, noncompetitive fit; very weak, called ineffective by the authors; format: biochemical; set-up: catalytic domain, residues 258–605; settings: read-out: Kis
Target sequence in this assay (O75604 258-605): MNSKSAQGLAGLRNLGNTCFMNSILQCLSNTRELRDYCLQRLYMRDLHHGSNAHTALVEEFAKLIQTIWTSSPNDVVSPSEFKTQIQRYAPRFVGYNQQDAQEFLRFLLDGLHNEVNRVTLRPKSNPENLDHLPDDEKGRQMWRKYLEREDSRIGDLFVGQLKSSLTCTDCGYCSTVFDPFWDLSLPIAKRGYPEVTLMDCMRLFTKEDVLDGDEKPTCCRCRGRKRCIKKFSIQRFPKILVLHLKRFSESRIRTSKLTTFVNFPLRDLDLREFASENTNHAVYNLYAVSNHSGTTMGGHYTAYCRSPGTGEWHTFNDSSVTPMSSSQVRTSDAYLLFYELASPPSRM

[2] = biological target: T1, USP2 (ubiquitin-specific protease 2); experiment: X-ray crystal structure (soak, […] Å, about […] occupancy); Ub-AFC deubiquitination kinetics (Kis […], IC50 […]); format: biochemical; set-up: catalytic domain, residues 258–605; with ubiquitin (Ub) in the crystal
Target sequence in this assay (O75604 258-605, other chains not shown): as the sequence (O75604 258-605) above

Row | Ki [1] [µM] | Structure (SMILES) | Ki [2] [µM]
1 | 349 ± 23.7 | Sc1ncnc2nc[nH]c12 [6MP, 6-mercaptopurine] | 
2 |  | Nc1nc2nc[nH]c2c(=S)[nH]1 [6TG, 6-thioguanine] | 24.6 ± 1.8
